{"source": "patent US20070225518A1", "about": "“5-Aminolevulinic acid salts and their use” (priority 2006, published 2007)", "key": {"[1]": {"test_system": "Friend erythroleukemia cells (FLC)", "experiment": "Stability of stored ALA salt solutions, read out as porphyrin formation in FLC by flow cytometry", "type": "cell-based", "settings": "for Stability of solutions on storage (porphyrin formation in cells): 0.1 mg/ml, 7 days at 4° C. and at 37° C.; for Stability in aqueous and non-aqueous media: aqueous as well as non-aqueous media such as PEG", "method": "(§1) Flow cytometry for cellular PpIX. […] After the incubation, the cells were washed with Ca^+2—Mg+^2 free PBS and scraped off with a rubber policeman. After a 10 min centrifugation at 1100 RPM, the supernatant was decanted and the pellet was resuspended in 0.5 ml Ca^+2—Mg^+2 free PBS. The cell suspension was filtered and measured using a Fluorescence Activated Cell Sorter (Becton Dickinson FACS Calibur, Mountain View, Calif., USA). 10,000 cells were measured in each sample using an excitation wavelength of 488 nm, and emission >600 nm, respectively.\n. […] (a), 37° C. (b), or after no storage (c). In controls (d), no ALA salt was presented to the cells. The cells were then examined for the presence of PpIX by flow cytometry at […]. […]"}, "[2]": {"settings": "background statement, cited from earlier work"}, "[3]": {"test_system": "Friend erythroleukemia cells (FLC)", "experiment": "PpIX formation in FLC by fluorescence spectroscopy of extracted porphyrins", "type": "cell-based", "settings": "0.1 mg/ml, 4 h, excitation 410 nm, characteristic major peak at 633", "method": "(§2) Cell culture. Friend erythroleukemia cells (FLC) and B16 melanoma cells were grown in a DMEM medium and RPMI 1640, respectively, (Biological Industries, Beit-Haemek, Israel), supplemented with 10% fetal calf serum and antibiotics, on tissue culture plates (Corning, Cambridge, Mass., USA) and incubated at 37° C. in a humidified atmosphere with 8% CO2. The cells were re-cultured twice a week.\n(§3) Extraction of porphyrins from cells. FLC were incubated with 0.1 mg/ml ALA-HCl, AN 301, or AN 302 for 4 h. The cells were then washed and suspended in 750 μl glacial acetic acid. The cells were then sonicated on ice, at an amplitude of 1-2, three times for 45 sec, with 15 sec between successive sonications. Following the sonication, the lysate was transferred to glass test tubes containing 2.25 ml ethyl acetate, vigorously vortexed and centrifuged for 15 min at 3000 rpm. 2.6 ml of the supernatant were then transferred to glass test tubes containing 500 μl/1000 μl 1 M HCl and incubated overnight at 4° C. in the dark. Two phases formed, a lower inorganic phase and an upper organic phase containing the porphyrins. 300-700 μl from the organic phase was carefully removed with a Pasteur pipet. The porphyrins were then examined by HPLC and by spectroscopy.\nFluorometry of porphyrins. Fluorescence spectroscopy of the extrated porphyrins was examined using a SLM-Aminco spectrometer. Emission spectra were recorded following excitation at 410 nm."}, "[4]": {"test_system": "Friend erythroleukemia cells (FLC)", "experiment": "PpIX formation in FLC by HPLC analysis of extracted porphyrins", "type": "cell-based", "settings": "0.1 mg/ml, 4 h, retention time typical of PpIX", "method": "as §2, §3\nHigh pressure liquid chromatograph [HPLC] analysis of porphyrins. Extracted porphyrins were purified by HPLC on an Apex Presil C18 8μ column (Jones, Chromatography, Lakewood, Colo.) using a 0-50% linear gradient aetonitrile (+0.1% trifluoroacetic acid) over 40-min elution at 47% acetonitrile."}, "B16 melanoma cells": {"test_system": "B16 melanoma cells", "experiment": "ALA treatment, photosensitization and MTT assay", "type": "cell-based", "settings": "0.6 mM, 4 hr, irradiation 360-410 nm, MTT after 24 hr", "method": "as §2\nALA treatment and photosensitization. […] At the end of the incubation period, the cells were irradiated using a Vilber Lourmat lamp, VL-206BL, delivering a power density of 22.5 mW at 360-410 nm. Light intensity was measured with a Nova photometer (Ophir Optronics, Jerusalem).\nMTT assay. The effect of PDT on cell viability was measured after 24 hr. by a modified MTT assay which is based on the ability of live cells to cleave the tetrazolium ring to a molecule that absorbs at 590 nm in active mitochondria (Mosmann, 1983). 2×10^3 cells were grown in 96-well plates. The growth medium was replaced and 20 μl MTT (3-(4,5-dimethylthiazol-2-yl)-2,5-diphenyl tetrazolium bromide), 5 mg/ml PBS (Sigma, Chemical Co, St. Louis, Mo., USA), were added to each well. The cells were further incubated at 37° C. for 2 h. For lysis of the cells, N,N-dimethyformamide was added to the media for 5 hours and absorbance was then measured at 590 nm."}, "[5]": {"test_system": "Friend erythroleukemia cells (FLC)", "experiment": "Flow cytometry for cellular PpIX after uptake of ALA salt", "type": "cell-based", "settings": "stock solutions in H2O, PEG, buffer pH7", "method": "as §2, §1\n. Stock solutions of the ALA salt were made up in (a) H2O, (b) PEG, and (c) buffer pH7. […]. The ALA salt was then presented to the cells, and biosynthesis of PpIX was determined by flow cytometry. In controls (d) no ALA salt was presented to the cells. Typical results are shown in FIG. 3 in which the horizontal axis is florescence intensity (in arbitrary units), and the vertical axis is the number of cells having a given intensity level. […]"}, "[6]": {"settings": "stock solution stored 7 days, 4° C."}, "[7]": {"settings": "stock solution stored 7 days, 37° C."}}, "note": "Entries after “also recorded” stand apart in the source; their conditions may differ.", "data": [{"compound": "Cl.NCC(=O)CCC(=O)O", "note": "[ALA-HCl, reference compound]", "values": [{"measurement": "Stability of solutions on storage (porphyrin formation in cells)", "setting": "[1]", "value": "completely degraded"}, {"measurement": "porphyrin formation in FLC by flow cytometry", "setting": "[1]; [6]", "value": 3.5, "unit": "arbitrary units"}, {"measurement": "porphyrin formation in FLC by flow cytometry", "setting": "[1]; [7]", "value": 3.5, "unit": "arbitrary units"}, {"measurement": "porphyrin formation in FLC by flow cytometry", "setting": "[1]; stock solution, storage time 0", "value": 60, "unit": "arbitrary units"}, {"measurement": "Solubility in aqueous media", "setting": "[2]; aqueous media", "value": "soluble"}, {"measurement": "Solubility in organic solvents including polyethylene glycol (PEG)", "setting": "[2]; organic solvents including PEG", "value": "insoluble"}, {"measurement": "PpIX formation in the cells by spectroscopy", "setting": "[3]", "value": "same porphyrin product was generated"}, {"measurement": "PpIX formation in the cells as determined by HPLC", "setting": "[4]", "value": "same porphyrin (PpIX) was generated"}]}, {"compound": "NCC(=O)CCC(=O)O.O=S(=O)(O)c1ccccc1", "note": "[AN-301, 5-Amino4-oxopentanoic acid benzenesulfonate]", "values": [{"measurement": "Stability of solutions on storage (porphyrin formation in cells)", "setting": "[1]; benzenesulfonate", "value": "stable; also recorded: retained significant activity"}, {"measurement": "Stability in aqueous and non-aqueous media", "setting": "[1]", "value": "stable"}, {"measurement": "porphyrin formation in FLC by flow cytometry", "setting": "[1]; [6]", "value": 39, "unit": "arbitrary units"}, {"measurement": "porphyrin formation in FLC by flow cytometry", "setting": "[1]; [7]", "value": 39, "unit": "arbitrary units"}, {"measurement": "porphyrin formation in FLC by flow cytometry", "setting": "[1]; stock solution, storage time 0", "value": 57, "unit": "arbitrary units"}, {"measurement": "PpIX formation in the cells by spectroscopy", "setting": "[3]", "value": "same porphyrin product was generated"}, {"measurement": "Cell death / viability (MTT activity) following illumination", "setting": "B16 melanoma cells", "value": "as effective as ALA-HCl in causing cell death"}, {"measurement": "formation of PpIX inside the cells by flow cytometry", "setting": "[5]", "value": "leads to the formation of PpIX inside the cells"}, {"measurement": "Solubility in stock solution solvents", "setting": "H2O, PEG, and buffer pH7", "value": "soluble in each of these three solvents"}, {"measurement": "Lipid solubility PEG", "setting": "PEG", "value": "soluble in PEG"}, {"measurement": "Solubility in aqueous and non-aqueous media", "setting": "aqueous as well as non-aqueous media such as PEG", "value": "soluble"}, {"measurement": "PpIX formation in the cells as determined by HPLC", "setting": "[4]", "value": "same porphyrin (PpIX) was generated"}]}, {"compound": "NCC(=O)CCC(=O)O", "note": "[AN-302, 5-Amino-4-oxopentanoic acid 2-naphtylsulfonate]", "values": [{"measurement": "Stability of solutions on storage (porphyrin formation in cells)", "setting": "[1]", "value": "stable; also recorded: retained significant activity"}, {"measurement": "porphyrin formation in FLC by flow cytometry", "setting": "[1]; [6]", "value": 23, "unit": "arbitrary units"}, {"measurement": "porphyrin formation in FLC by flow cytometry", "setting": "[1]; [7]", "value": 29, "unit": "arbitrary units"}, {"measurement": "porphyrin formation in FLC by flow cytometry", "setting": "[1]; stock solution, storage time 0", "value": 49, "unit": "arbitrary units"}, {"measurement": "PpIX formation in the cells by spectroscopy", "setting": "[3]", "value": "same porphyrin product was generated"}, {"measurement": "Cell death / viability (MTT activity) following illumination", "setting": "B16 melanoma cells", "value": "as effective as ALA-HCl in causing cell death"}, {"measurement": "formation of PpIX inside the cells by flow cytometry", "setting": "[5]", "value": "leads to the formation of PpIX inside the cells"}, {"measurement": "PpIX formation in the cells as determined by HPLC", "setting": "[4]", "value": "same porphyrin (PpIX) was generated"}]}, {"compound": "NCC(=O)CCC(=O)O.O=S(=O)(O)c1ccc2ccccc2c1", "note": "[AN-302, 5-Amino-4-oxopentanoic acid 2-naphtylsulfonate]", "values": [{"measurement": "Stability in aqueous and non-aqueous media", "setting": "[1]", "value": "stable"}]}]}
